Measurements from US3963745A, “Method for controlling emesis with N-(1-substituted-3-pyrrolidinyl)benzamides and thiobenzamides” (A. H. Robins Company, Incorporated, priority 1974, dated 1976).
Where a name gives a salt, the structure may show the parent alone. Read-outs that look alike come from different tables or passages of the source.

Experiments:
Type in all cases: in vivo
[1] = test system: apomorphine-induced emesis; assay: apomorphine-induced emesis in dogs (anti-emetic effect); settings: for ED50: Canis lupus familiaris
Method: The anti-emetic properties of the compounds of Formulae I and II were established using a modification of the methods of Chen and Ensor, J. Pharmac. Exp. Ther. 98: 245-250 (1950) and of Leonard et al, J. Pharmac. Exp. Ther. 154, 339-345 (1966). Drug activity was assessed by its ability to reduce the frequency of apomorphine-induced emesis in dogs. The dogs were prescreened for fairly constant emetic responses to the subcutaneous administration of 0.1 mg./kg. of apomorphine hydrochloride, and those which vomited five or more times in the 40-minute period after apomorphine administration were selected for drug studies.
Groups of three dogs were used in preliminary tests and for the determinations of time of peak drug effect. Dose response curves were usually obtained using four drug-treated groups; each group contained at least three dogs. The dogs were fed approximately 17 hours prior to a test. Drugs were administered and at suitable intervals the dogs received 0.1 mg/kg of apormorphine hydrochloride subcutaneously. Frequency of emesis was determined during the next 40 minutes and emesis was counted as the actual expulsion of stomach contents.
In oral studies, drugs were administered in gelatin capsules (controls received an empty capsule). In the subcutaneous studies, drugs were administered in distilled water and/or polyethylene glycol-300.
Dogs were re-used at intervals of not less than one week. The ED50 is the dose which reduces the frequency of emesis of drug treated dogs to a value 50% below that of controls. Mean frequency of emesis for each drug treated group was compared with a mean control value derived by pooling the prior control emetic frequencies for all dogs used on that test day. The difference is expressed as a percentage decrease relative to controls. The per cent decrease in mean frequency of emesis for each drug-treated group (ordinate) was plotted against log dose (abscissa) on semi-log graph sheets. The ED50 was calculated by the method of Goldstein (Biostatistics, An Introductory Test; Pages 156-161; the MacMillan Co., New York, 1964).

[2] = Catalepsy in rats; settings: rat, in vivo, ip
Method: (§1) Drugs were blind tested with positive and negative controls. The procedure used is a modification of the method previously described by Tedeschi et al., Archs. Int. Pharmacodyn. Ther. 122, 129-143 (1959). The modified procedure is as follows.
(§2) Groups of six rats are dosed (IP) with drugs in saline solution and tested hourly over a 6 hour period. A phenothiazine or non-phenothiazine reference standard is tested concomitantly as a positive control; negative controls receive only the saline vehicle. After administration the rats are positioned hourly with each foot on a No. 7 rubber stopper. A rat is considered cataleptic if it remains immobile on the stoppers for five seconds or longer at two or more consecutive hourly observation intervals. […] Exp. Ther. 96, 99-113 (1949).

[3] = test system: catalepsy in rats; assay: Catalepsy in rats; settings: Table 7, rats, IP
Method: as §1, §2

[4] = sc, Table 4, dogs, subcutaneous, doses expressed as free base, read-out: ED50, Anti-Emetic Effect of Subcutaneous Administration
[5] = sc, Table 7, dogs, subcutaneous, as free base, read-out: Anti-Apomorphine Effect ED50
[6] = sc, Table 6, dogs, subcutaneous, as free base, read-out: Anti-Apomorphine Effect ED50
[7] = sc, read-out: ED50, Anti-Emetic Effect of Subcutaneous Administration
[8] = Table 5, dogs, oral, doses expressed as free base, read-out: ED50, Anti-Emetic Effect of Oral Administration

O=C(NC1CCN(C2CCCCC2)C1)c1ccc([N+](=O)[O-])cc1 (stereo not drawn) [Example 25]
ED50 [1, 4]: 2.03 mg/kg
ED50 [1, 5]: 1.8 mg/kg
TD50 at 6 h [2]: 28 mg/kg

CN1CCC(NC(=O)c2ccccc2)C1.O=C(O)/C=C/C(=O)O (stereo not drawn) [Example 8(A), N-(1-Methyl-3-pyrrolidinyl)benzamide Fumarate, reference compound]
ED50 [1, 6]: 3.2 mg/kg

O=C(NC1CCN(C2CCCCC2)C1)c1ccc(F)cc1 (stereo not drawn) [Example 10]
ED50 [1, 7]: 0.15 mg/kg
ED50 [1, 8]: 1.5 mg/kg

CN(C(=O)c1ccc([N+](=O)[O-])cc1)C1CCN(C2CCCCC2)C1 (stereo not drawn) [Example 27]
ED50 [1, 5]: 10 mg/kg
Catalepsy (ED50 or other): no catatonia up to dose ([3]; as free base): no catatonia to 100
lethal dose ([3]; as free base): 100 mg/kg

Cc1ccc(C(=O)NC2CCN(C3CCCCC3)C2)cc1 (stereo not drawn) [Example 36]
ED50 [1, 4]: 0.31 mg/kg

COc1ccc(C(=O)NC2CCN(C3CCCCC3)C2)c(OC)c1 (stereo not drawn) [Example 34]
ED50 [1, 4]: 0.026 mg/kg

COc1cc(C(=O)NC2CCN(C3CCCCC3)C2)cc(OC)c1OC (stereo not drawn) [Example 18]
ED50 [1, 4]: 0.4 mg/kg

CNc1ccc(C(=O)N(C)C2CCN(C3CCCCC3)C2)cc1.Cl.Cl (stereo not drawn) [Example 9, 4-Methylamino-N-(1-cyclohexyl-3-pyrrolidinyl)-N-methylbenzamide Dihydrochloride]
ED50 [1, 4]: 0.5 mg/kg

CN(C(=O)c1ccc(N)cc1)C1CCN(C2CCCCC2)C1 (stereo not drawn) [Example 4, 4-Amino-N-(1-cyclohexyl-3-pyrrolidinyl)-N-methylbenzamide Cyclohexanesulfamate]
ED50 [1, 5]: 0.27 mg/kg
ED50 ([1]; sc, dogs, subcutaneous, cyclohexanesulfamate salt dose, read-out: ED50 for subcutaneous administration): 0.43 mg/kg
ED50 ([1]; sc, dogs, subcutaneous, expressed as free base (Example 1P), read-out: ED50 for subcutaneous administration, expressed as free base): 0.27 mg/kg
blockage of apomorphine induced emesis ([1]; dogs, oral capsules 2.5 mg./kg., apomorphine after two hours): 95%
blockage of emesis ([1]; dogs, subcutaneous 5.0 mg./kg. (3.12 mg./kg. as free base), apomorphine one hour later, 40-minute period): 100%
Catalepsy (ED50 or other): no catatonia up to dose ([3]; as free base): no catatonia to 125

CN(C)c1ccc(C(=O)N(C)C2CCN(C3CCCCC3)C2)cc1 (stereo not drawn) [Example 6, N-(1-Cyclohexyl-3-pyrrolidinyl)-p-dimethylamino-N-methylbenzamide Fumarate]
ED50 [1, 4]: 1.1 mg/kg

COc1cc(N)c(Cl)cc1C(=O)NC1CCN(C2CCCCC2)C1 (stereo not drawn) [Example 37]
ED50 [1, 4]: 0.003 mg/kg
ED50 [1, 6]: 0.003 mg/kg

CN(C)c1ccc(C(=O)NC2CCN(C3CCCCC3)C2)cc1 (stereo not drawn) [Example 35]
ED50 [1, 4]: 0.89 mg/kg

CC(=O)Nc1ccc(C(=O)NC2CCN(C3CCCCC3)C2)cc1 (stereo not drawn) [Example 7, N-(1-Cyclohexyl-3-pyrrolidinyl)-4-acetamidobenzamide]
ED50 [1, 7]: 2.4 mg/kg

CCOc1ccc(C(=O)NC2CCN(C3CCCCC3)C2)cc1OCC (stereo not drawn) [Example 15]
ED50 [1, 4]: 0.66 mg/kg

O=C(NC1CCN(C2CCCCC2)C1)c1ccccc1F (stereo not drawn) [Example 2, N-(1-Cyclohexyl-3-pyrrolidinyl)-2-fluorobenzamide hydrochloride]
ED50 [1, 4]: 1.6 mg/kg

O=C(NC1CCN(C2CCCCC2)C1)c1cccc(Br)c1 (stereo not drawn) [Example 1, N-(1-Cyclohexyl-3-pyrrolidinyl)-3-bromobenzamide]
ED50 [1, 4]: 0.4 mg/kg

O=C(NC1CCN(C2CCCCC2)C1)c1ccccc1 (stereo not drawn) [Example 24]
ED50 [1, 4]: 0.28 mg/kg
ED50 [1, 6]: 0.28 mg/kg

O=C(NC1CCN(C2CCCCC2)C1)c1cc([N+](=O)[O-])cc([N+](=O)[O-])c1 (stereo not drawn) [Example 12]
ED50 [1, 7]: 0.15 mg/kg

O=C(NC1CCN(C2CCCCC2)C1)c1ccc(I)cc1 (stereo not drawn) [Example 20]
ED50 [1, 4]: 1.25 mg/kg

COc1cc(N)c(Cl)cc1C(=O)NC1CCN(C)C1 (stereo not drawn) [Example 8(B), 4-Amino-5-chloro-2-methoxy-N-(1-methyl-3-pyrrolidinyl)benzamide, reference compound]
ED50 [1, 6]: 0.053 mg/kg

O=C(NC1CCN(C2CCCCC2)C1)c1ccc(Cl)c(Cl)c1 (stereo not drawn) [Example 13]
ED50 [1, 4]: 0.28 mg/kg

O=C(NC1CCN(C2CCCCC2)C1)c1ccc(Br)cc1 (stereo not drawn) [Example 11]
ED50 [1, 4]: 0.7 mg/kg

O=C(NC1CCN(C2CCCCC2)C1)c1ccc(Cl)cc1 (stereo not drawn) [Example 17]
ED50 [1, 4]: 0.28 mg/kg

CSc1ccc(C(=O)NC2CCN(C3CCCCC3)C2)cc1 (stereo not drawn) [Example 33]
ED50 [1, 4]: 0.88 mg/kg

O=C(NC1CCN(C2CCCCC2)C1)c1ccc(Cl)cc1Cl (stereo not drawn) [Example 32]
ED50 [1, 7]: 2.4 mg/kg

Nc1ccc(C(=O)NC2CCN(C3CCCCC3)C2)cc1 (stereo not drawn) [Example 23]
ED50 [1, 4]: 1.67 mg/kg
ED50 [1, 5]: 1.7 mg/kg
ED50 [1, 8]: 2.5 mg/kg
Catalepsy, percentage of rats cataleptic ([3]; at 94.2 mg/kg as free base): 33%

O=C(NC1CCN(C2CCCCC2)C1)c1cccc(C(F)(F)F)c1 (stereo not drawn) [Example 16]
ED50 [1, 4]: 0.18 mg/kg
